Entries after “also recorded” stand apart in the source; their conditions may differ.
What was measured:
HOP-92 cells [1] = assay: Cell cycle analysis (propidium iodide flow cytometry); assay type: cell-based, human
Excerpt: Research has been done on how the most powerful antitumor compound, 4e, affects the HOP-92 cell cycle’s growth and apoptosis.
Researcher : Dr.Mohamed Hawas email: mohhawwas80@gmail.com mob. 01151345909 Assay : Cell Cycle Analysis mohamedhassan.pharm.ast@azhr.edu.eg Samples : 02 samplescell line : ---Ref. : ---Date : 00-00-2022Reader : BD FACSCaliburKit used : ab139418_Propidium Iodide Flow Cytometry Kit/BDSolvent : DMSOAssay samples : Cell culture

HOP-92 cells [2] = assay: Annexin V-FITC/PI apoptosis assay; assay type: cell-based, human
Description: Using the Annexin V-FITC/PI test, the tendency of compound 4e to cause apoptosis and its potential association with cytotoxic action were evaluated. The cells were labeled with annexin V-FITC/PI and cultured for 24 h to detect any signs of apoptosis. […] According to research on early and late apoptosis and DNA content (Figs. 9, 10), 4e with 3.4% necrosis is probably going to result in a large amount of apoptosis (Table 5 and Fig. 10).
Cell apoptosis were analyzed by the Annexin V-FITC Apoptosis Detection Kit (BioVision Research Products, USA). Thereafter, 1-5 x 10^5 cells was collected by centrifugation and resuspend in 500 μl of 1X Binding Buffer. Added 5 μl of Annexin V-FITC and 5 μl of propidium iodide (PI […], optional.). The cells incubated at room temperature for 5 min in the dark;Analyzed by Annexin V-FITC binding flow cytometric method (Ex = 488 nm; Em = 530 nm) usingFITC signal detector (usually FL1) and PI staining by the phycoerythrin emissionsignal detector (usually FL2).For adherent cells, we gently trypsinized and washed cells once with serum-containing mediabefore incubation with Annexin V-FITC (A.3-5).

normal cell line WI-38 = conditions: human, 0.4 µM

| Compound | DNA content Comment (HOP-92 cells [1]; HOP92 cells) | DNA content %G2/M (HOP-92 cells [1]; HOP92 cells, control 16.08) [%] | DNA content %S (HOP-92 cells [1]; HOP92 cells, control 35.66) [%] | DNA content %G0-G1 (HOP-92 cells [1]; HOP92 cells, control 48.26) [%] | Comment (cell cycle arrest) (HOP-92 cells [1]; HOP-92, 24 h at IC50) | DNA content % G0–G1 (HOP-92 cells [1]; HOP-92, 24 h at IC50) [%] | DNA content %G2/M (HOP-92 cells [1]; HOP-92, 24 h at IC50) [%] | DNA content %S (HOP-92 cells [1]; HOP-92, 24 h at IC50) [%] | Apoptosis Late (HOP-92 cells [2]; HOP92 cells, control 0.15) | Apoptosis Early (HOP-92 cells [2]; HOP92 cells, control 0.69) | Necrosis (HOP-92 cells [2]; HOP92 cells, control 1.3) | Apoptosis Total (HOP-92 cells [2]; HOP92 cells, control 2.14) | Apoptosis Early (HOP-92 cells [2]; HOP-92, 24 h at IC50) [%] | Apoptosis Late (HOP-92 cells [2]; HOP-92, 24 h at IC50) [%] | Apoptosis Total (HOP-92 cells [2]; HOP-92, 24 h at IC50) [%] | Necrosis (HOP-92 cells [2]; HOP-92, 24 h at IC50) [%] | % viability (normal cell line WI-38) [%] |
| --- | --- | --- | --- | --- | --- | --- | --- | --- | --- | --- | --- | --- | --- | --- | --- | --- | --- |
| C/C(=N\Nc1ccc(S(N)(=O)=O)cc1)c1cnn(-c2cc(=O)[nH]c3ccc(Br)cc23)c1C [Compound 4e, (E)-4-(2-(1-(1-(6-bromo-2-oxo-1,2-dihydroquinolin-4-yl)-5-methyl-1H-pyrazol-4-yl)ethylidene)hydrazineyl)benzenesulfonamide] | cell growth arrest@ G1 | 14.6 | 31.29 | 54.11 | cell growth is arrested at the G1 phase; also recorded: cell cycle arrest at the G0-1 phase; also recorded: Cell growth arrest at G1phase | 54.11 | 14.6 | 31.3 | 11.28 | 22.91 | 3.4 | 37.59 | 22.91 | 11.28 | 37.59 | 3.4 | – |
| CN[C@@H]1C[C@H]2O[C@@](C)([C@@H]1OC)n1c3ccccc3c3c4c(c5c6ccccc6n2c5c31)C(=O)NC4 [Staurosporine, reference compound] | – | – | – | – | – | – | – | – | – | – | – | – | – | – | – | – | 84.55 |

— paper PMC12638379, “An innovative approach to development of new pyrazolylquinolin-2-one hybrids as dual EGFR and BRAF^V600E inhibitors” (Molecular Diversity, 2025)
